Source: US4738929A, “Purified culture of streptomyces galanosa” (Warner-Lambert Company, priority 1986, dated 1988)
Where a name gives a salt, the structure may show the parent alone.

System: P388 leukemia cell line
Test: In vivo antineoplastic activity against transplanted P388 leukemia in mice
Settings: Days 1-9
Procedure: The in vivo antineoplastic activity of representative compounds of the present invention against the transplanted P388 leukemia cell line in mice was determined in accordance with the protocol given in Geran et al, cited above. The mice were infected intraperitoneally on Day 0 and then administered the indicated doses of the test compounds on Days 1-9.

Cc1c(O)c(C=O)c2nc3c(O)ccc(C(=O)NCCN(C)C)c3nc2c1O [Example 9, N-[2-(dimethylamino)ethyl]-6-formyl-4,7,9-trihydroxy-8-methyl-1-phenazinecarboxamide, methanesulfonate salt]
% T/C (5 mg/kg/injection): 139%
% T/C (10 mg/kg/injection): 143%
% T/C (20 mg/kg/injection): 144%
% T/C (40 mg/kg/injection): 170%
% T/C (80 mg/kg/injection): 219%
